Data as given in ChEMBL document CHEMBL1131452 (J Med Chem, 1998).
pIC50: −log10 of the molar value.

Columns and labels:
[1] = target: 3',5'-cyclic-AMP phosphodiesterase 4A (Homo sapiens, UniProt P27815); experiment: Evaluated in vitro for its inhibitory activity on unpurified recombinant Phosphodiesterase type 4A (PDE4A).
[2] = target: 3',5'-cyclic-AMP phosphodiesterase 4C (Homo sapiens, UniProt Q08493); experiment: Evaluated in vitro for its inhibitory activity on unpurified recombinant Phosphodiesterase 4C
[3] = target: 3',5'-cyclic-AMP phosphodiesterase 4D (Homo sapiens, UniProt Q08499); experiment: In vitro inhibitory activity on unpurified recombinant Phosphodiesterase 4D
[4] = target: 3',5'-cyclic-AMP phosphodiesterase 4B (Homo sapiens, UniProt Q07343); experiment: Inhibition of recombinant human Phosphodiesterase 4B
[5] = species: Homo sapiens; experiment: Evaluated in vitro for its inhibitory activity on LPS-induced TNF-Alpha release in human whole blood.; format: functional, organism-based
[6] = species: Homo sapiens; experiment: Evaluated in vitro for its inhibitory activity on LPS-induced TNF-Alpha release in human monocyte.; format: functional
[7] = target: Phosphodiesterase 4 (Homo sapiens, UniProt P27815+Q08499+Q07343+Q08493); experiment: Evaluated in vitro for its inhibitory activity on human monocyte cytosol Phosphodiesterase type 4 (PDE4).; format: protein assay

3',5'-cyclic-AMP phosphodiesterase 4C, sequence (Q08493 whole entry): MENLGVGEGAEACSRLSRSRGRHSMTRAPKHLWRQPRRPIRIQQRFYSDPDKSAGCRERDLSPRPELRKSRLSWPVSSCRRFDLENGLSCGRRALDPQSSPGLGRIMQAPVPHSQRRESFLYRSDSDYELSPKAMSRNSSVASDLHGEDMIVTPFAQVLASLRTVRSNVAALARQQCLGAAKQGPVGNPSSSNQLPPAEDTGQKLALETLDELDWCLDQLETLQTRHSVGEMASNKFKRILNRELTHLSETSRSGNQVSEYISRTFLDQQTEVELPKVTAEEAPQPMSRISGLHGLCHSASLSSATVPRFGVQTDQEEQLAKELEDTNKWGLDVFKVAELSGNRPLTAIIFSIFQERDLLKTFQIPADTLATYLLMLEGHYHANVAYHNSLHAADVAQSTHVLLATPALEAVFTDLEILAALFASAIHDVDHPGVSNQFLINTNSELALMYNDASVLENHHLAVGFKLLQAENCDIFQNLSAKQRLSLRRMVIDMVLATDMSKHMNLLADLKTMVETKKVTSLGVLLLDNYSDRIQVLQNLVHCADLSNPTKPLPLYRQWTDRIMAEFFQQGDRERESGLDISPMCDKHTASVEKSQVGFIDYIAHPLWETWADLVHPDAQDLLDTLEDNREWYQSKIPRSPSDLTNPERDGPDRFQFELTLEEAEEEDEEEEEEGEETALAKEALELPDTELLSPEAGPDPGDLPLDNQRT
3',5'-cyclic-AMP phosphodiesterase 4A, sequence (P27815 whole entry): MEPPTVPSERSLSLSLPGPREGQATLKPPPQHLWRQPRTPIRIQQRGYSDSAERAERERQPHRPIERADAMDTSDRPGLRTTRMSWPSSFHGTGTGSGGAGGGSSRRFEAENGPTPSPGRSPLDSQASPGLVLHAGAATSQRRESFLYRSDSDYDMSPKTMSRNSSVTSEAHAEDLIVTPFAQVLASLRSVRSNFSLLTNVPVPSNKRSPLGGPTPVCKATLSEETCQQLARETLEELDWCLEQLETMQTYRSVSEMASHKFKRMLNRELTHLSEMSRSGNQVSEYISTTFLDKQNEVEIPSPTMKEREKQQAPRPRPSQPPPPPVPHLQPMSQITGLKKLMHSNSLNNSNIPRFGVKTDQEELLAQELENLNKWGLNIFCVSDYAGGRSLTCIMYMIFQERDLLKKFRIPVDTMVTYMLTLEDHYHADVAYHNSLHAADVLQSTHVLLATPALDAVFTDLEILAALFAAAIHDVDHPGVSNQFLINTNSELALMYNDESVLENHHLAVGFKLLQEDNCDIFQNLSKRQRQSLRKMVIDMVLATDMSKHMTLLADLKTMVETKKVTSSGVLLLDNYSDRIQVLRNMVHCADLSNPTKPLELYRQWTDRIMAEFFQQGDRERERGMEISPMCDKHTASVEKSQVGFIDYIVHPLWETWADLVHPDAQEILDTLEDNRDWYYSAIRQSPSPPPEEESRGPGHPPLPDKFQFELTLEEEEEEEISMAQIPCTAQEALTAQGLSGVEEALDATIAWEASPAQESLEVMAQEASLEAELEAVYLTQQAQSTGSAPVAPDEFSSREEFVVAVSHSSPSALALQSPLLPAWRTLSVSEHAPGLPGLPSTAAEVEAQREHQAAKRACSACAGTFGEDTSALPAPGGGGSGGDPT
3',5'-cyclic-AMP phosphodiesterase 4B, sequence (Q07343 whole entry): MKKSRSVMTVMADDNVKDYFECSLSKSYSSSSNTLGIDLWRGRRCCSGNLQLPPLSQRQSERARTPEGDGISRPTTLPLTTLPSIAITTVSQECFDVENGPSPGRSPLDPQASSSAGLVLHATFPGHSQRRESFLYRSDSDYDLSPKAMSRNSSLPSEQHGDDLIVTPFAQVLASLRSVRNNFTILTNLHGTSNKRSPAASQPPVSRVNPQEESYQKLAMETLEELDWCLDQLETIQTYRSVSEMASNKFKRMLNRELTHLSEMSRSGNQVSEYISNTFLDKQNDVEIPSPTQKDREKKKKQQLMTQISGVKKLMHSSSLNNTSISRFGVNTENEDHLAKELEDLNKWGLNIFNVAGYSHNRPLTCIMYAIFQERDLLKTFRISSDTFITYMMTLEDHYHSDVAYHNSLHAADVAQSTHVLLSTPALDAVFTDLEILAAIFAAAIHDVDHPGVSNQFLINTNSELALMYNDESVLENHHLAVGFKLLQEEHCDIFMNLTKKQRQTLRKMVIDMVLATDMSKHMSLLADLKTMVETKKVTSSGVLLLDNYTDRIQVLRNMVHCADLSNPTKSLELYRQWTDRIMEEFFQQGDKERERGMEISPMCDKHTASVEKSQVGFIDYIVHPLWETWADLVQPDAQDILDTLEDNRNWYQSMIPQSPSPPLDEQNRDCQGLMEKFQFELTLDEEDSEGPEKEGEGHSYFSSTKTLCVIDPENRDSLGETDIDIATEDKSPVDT
3',5'-cyclic-AMP phosphodiesterase 4D, sequence (Q08499 whole entry): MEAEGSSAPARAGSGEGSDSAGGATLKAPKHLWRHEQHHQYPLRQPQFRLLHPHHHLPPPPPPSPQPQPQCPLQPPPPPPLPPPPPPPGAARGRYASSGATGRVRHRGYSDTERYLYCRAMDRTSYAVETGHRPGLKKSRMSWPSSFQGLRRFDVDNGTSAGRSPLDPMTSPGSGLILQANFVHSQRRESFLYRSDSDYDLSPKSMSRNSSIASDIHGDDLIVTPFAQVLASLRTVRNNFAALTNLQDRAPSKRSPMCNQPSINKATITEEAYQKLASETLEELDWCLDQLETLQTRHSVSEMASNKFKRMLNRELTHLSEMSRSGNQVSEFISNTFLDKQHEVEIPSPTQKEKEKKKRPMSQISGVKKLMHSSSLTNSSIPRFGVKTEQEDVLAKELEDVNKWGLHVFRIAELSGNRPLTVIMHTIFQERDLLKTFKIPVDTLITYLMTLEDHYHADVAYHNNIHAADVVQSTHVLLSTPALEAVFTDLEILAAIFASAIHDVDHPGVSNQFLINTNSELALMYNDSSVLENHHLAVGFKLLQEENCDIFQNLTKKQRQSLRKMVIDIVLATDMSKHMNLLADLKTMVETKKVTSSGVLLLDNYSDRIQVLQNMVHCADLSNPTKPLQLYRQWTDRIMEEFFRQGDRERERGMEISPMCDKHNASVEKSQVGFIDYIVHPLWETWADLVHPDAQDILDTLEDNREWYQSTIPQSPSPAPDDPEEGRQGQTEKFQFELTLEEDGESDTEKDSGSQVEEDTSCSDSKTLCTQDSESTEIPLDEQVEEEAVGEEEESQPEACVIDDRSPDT

SMILES | pIC50 [1] | pIC50 [2] | pIC50 [3] | pIC50 [4] | pIC50 [5] | pIC50 [6] | IC50 [7] [nM]
COc1ccc(C2=NOC(C(=O)NO)C2)cc1OC1CCCC1 (configuration not stated) | 8.66 | 7.74 | 8.57 | 8.68 | 7.52 | – | –
COc1ccc(C2=NOC(C(=O)O)C2)cc1OC1CCCC1 (configuration not stated) | – | – | – | – | – | 4.45 | 2540
COc1ccc(C(=O)NCC(=O)O)cc1OC1CCCC1 | – | – | – | – | – | < 4.30 | 1760
COc1ccc(C(=O)Nc2c(Cl)cncc2Cl)cc1OC1CCCC1 | – | – | – | – | 7.10 | 8.70 | –
COc1ccc(C2=NOC(C(=O)N(C)O)C2)cc1OC1CCCC1 (configuration not stated) | – | – | – | – | – | 4.99 | 3960
COc1ccc(C(=O)NC(C)C(=O)NO)cc1OC1CCCC1 (configuration not stated) | 7.29 | 6.90 | 7.69 | 7.65 | 7.30 | – | –
CCCC1(C(=O)NO)CC(c2ccc(OC)c(OC3CCCC3)c2)=NO1 (configuration not stated) | – | – | – | – | – | 5.99 | 567
COc1ccc(C2=NOC(C)(C(=O)NO)C2)cc1OC1CCCC1 (configuration not stated) | 8.01 | 7.02 | 8.00 | 7.96 | 7.13 | – | –
COc1ccc(C2=NOC(C(N)=O)C2)cc1OC1CCCC1 (configuration not stated) | – | – | – | – | – | 5.37 | 3930

More lines, in order of rising pIC50 [6], values ahead:

pIC50 [1] | pIC50 [2] | pIC50 [3] | pIC50 [4] | pIC50 [5] | pIC50 [6] | IC50 [7] [nM] | SMILES
– | – | – | – | – | 6.07 | 1650 | COc1ccc(-c2cc(C(=O)NO)on2)cc1OC1CCCC1
– | – | – | – | 6.18 | 6.42 | – | COc1ccc(C2CNC(=O)C2)cc1OC1CCCC1 (configuration not stated) [ROLIPRAM]
– | – | – | – | – | 6.64 | 178 | CCC1(C(=O)NO)CC(c2ccc(OC)c(OC3CCCC3)c2)=NO1 (configuration not stated)
– | – | – | – | – | 6.86 | 221 | COc1ccc(C2=NOC(CC(=O)NO)C2)cc1OC1CCCC1 (configuration not stated)
7.57 | 7.82 | 7.81 | 7.75 | 7.18 | 7.49 | 249 | COc1ccc(C(=O)NCC(=O)NO)cc1OC1CCCC1
